Series [1] addresses Protein farnesyltransferase (Homo sapiens, UniProt P49354+P49356). Nature of the series: Inhibition of purified recombinant human farnesyltransferase (FT).
Series [2] deals with T1, Protein farnesyltransferase (Rattus norvegicus) (UniProt Q04631+Q02293). Nature of the series: Percent phenotypic reversion of H-ras transformed Rat-1 cells at 10 uM. It is filed as functional, cell-based.
Series [3] has as its system Mus musculus. Nature of the series: In vivo antitumor activity (log cell kill, LCK) by subcutaneous implantation of HCT116 tumors followed by oral administration at an optimal dose of 700 mg/kg in expt. 1. It is filed as functional.
In a further series the test system is NIH3T3. The series can be described thus: cells. To be noted: Mus musculus.
Series [4] deals with T1, Protein farnesyltransferase (Rattus norvegicus). The series can be described thus: Percent phenotypic reversion of H-ras transformed Rat-1 cells at 1 uM. It is filed as functional, cell-based.
Series [5] shares this target. The series can be described thus: Percent phenotypic reversion of H-ras transformed Rat-1 cells at 5 uM. It is filed as functional, cell-based.
Series [6] concerns Mus musculus. The series can be described thus: In vivo antitumor activity (log cell kill, LCK) by subcutaneous implantation of HCT116 tumors followed by oral administration at an optimal dose of 600 mg/kg in expt. 3. It is filed as functional.
Series [7] has as its system Mus musculus. Nature of the series: In vivo antitumor activity (log cell kill, LCK) by subcutaneous implantation of HCT116 tumors followed by oral administration at an optimal dose of 600 mg/kg in mice.
Series [8] relates to Mus musculus. Nature of the series: In vivo antitumor activity (log cell kill, LCK) by subcutaneous implantation of HCT116 tumors followed by oral administration at an optimal dose of 600 mg/kg in expt. 2. It is filed as functional.
Series [9] in a line: Half-life of compound in Balb/c mice following an oral dose of 90 mg/kg. To be noted: Balb/c mouse, in vivo.
Series [10] can be described thus: Oral bioavailability, based on dose-normalized AUC values in BALB/c mice. The note with it: mouse, in vivo. It is filed as ADME, organism-based.
The species named for series [11] is Mus musculus. Nature of the series: Increase in lifespan reflected by relative median survival time of treated versus control groups expressed as maximum % T/C. It is filed as functional.
Series [12] relates to Mus musculus. Nature of the series: In vivo antitumor activity (log cell kill, LCK) by subcutaneous implantation of HCT116 tumors followed by oral administration at an optimal dose of 600 mg/kg in expt. 5. It is filed as functional.
Series [13] can be described thus: Clearance in rats following intravenous dose of 50 mg/kg. The note with it: rat, in vivo.
Series [14] in a line: in vivo. The note with it: rat, po, 50 mg/kg.
Description: Oral bioavailability observed in rats at an oral dose of 50 mg/kg
Series [15] in a line: in vivo. The note with it: rat, iv, 50 mg/kg.
Description: Volume of distribution (Vss) in rats following intravenous dose of 50 mg/kg
Series [16] can be described thus: Maximum concentration observed in rats at an oral dose of 50 mg/kg. The note with it: rat, in vivo.
Series [17] is described as follows: Half-life of compound in rats following intravenous dose of 50 mg/kg. To be noted: rat, in vivo.
The test system of series [18] is Mus musculus. The series can be described thus: In vivo antitumor activity (log cell kill, LCK) by subcutaneous implantation of HCT116 tumors followed by oral administration at an optimal dose of 600 mg/kg in expt. 4. It is filed as functional.

Description for NIH3T3: Inhibition of anchorage independent growth of H-ras transformed NIH3T3 cells in Soft Agar

In general, IC50 refers to the concentration that gives 50% inhibition. Take `O=C(c1cccc2ccccc12)N1Cc2ccccc2N(Cc2c[nH]cn2)CC1Cc1ccccc1` (stereo not given): the IC50 in series [1] is 276 nM. For the same compound, the Reversion in series [2] is 70%.
By EC50 is commonly meant the midpoint of the concentration-response curve. Read a low EC50 as greater potency. `CS(=O)(=O)N1Cc2cc(Br)ccc2N(Cc2c[nH]cn2)C[C@H]1Cc1ccccc1` yielded an LCK with Mus musculus [3] of 1.5. In the series on NIH3T3, this compound yielded an EC50 of 290 nM. The compound further showed a Reversion in series [4] of 70%.
In turn, `O=C(c1cccc2ccccc12)N1CCN(Cc2c[nH]cn2)c2ccc(Br)cc2C1` returned a Reversion in [5] of 5%.
With `CN(C)C(=O)N1Cc2cc(C#N)ccc2N(Cc2c[nH]cn2)C[C@H]1Cc1ccccc1`, in series [1], the IC50 stood at 17 nM. In addition, the Reversion in series [4] amounted to 40%.
Consider `CC(=O)N1Cc2cc(Br)ccc2N(Cc2c[nH]cn2)CC1Cc1ccccc1` (stereo not given), for which the IC50 in series [1] is 60 nM. In the series on NIH3T3, this compound came in with an EC50 of 600 nM. Further, the Reversion in series [4] amounted to 30%.
Take `CS(=O)(=O)N1Cc2cc(Br)ccc2N(Cc2c[nH]cn2)CC1CCc1ccccc1` (stereo not given): the response in the series on NIH3T3 was half-maximal at 400 nM (EC50). Further, in series [4], the Reversion was 70%.
Consider `CS(=O)(=O)N1Cc2cc(Br)ccc2N(Cc2c[nH]cn2)CC1Cc1cccc(Cl)c1` (stereo not given), for which, in series [1], the IC50 stood at 24 nM. In addition, in [2], the Reversion stood at 70%.
`CS(=O)(=O)N1Cc2cc(Br)ccc2N(Cc2c[nH]cn2)CC1CNC(=O)c1ccccc1` (stereo not given) had a Reversion in series [4] of 0%.
As for `CS(=O)(=O)N1Cc2cc(C#N)ccc2N(Cc2c[nH]cn2)C[C@H]1Cc1ccccc1`, the IC50 in [1] was determined as 3 nM. In the series on Mus musculus [6], the LCK was found to be 0.6. The compound further came in with an EC50 in the series on NIH3T3 of 13 nM.
For `CS(=O)(=O)N1Cc2cc(Br)ccc2N(Cc2c[nH]cn2)C[C@H]1CC1CCCCC1`, in series [2], the Reversion turned out to be 90%.
For `COc1ccc(CC2CN(Cc3c[nH]cn3)c3ccc(Br)cc3CN2S(C)(=O)=O)cc1` (stereo not given), the IC50 in series [1] came out at 101 nM. In [4], the Reversion worked out at 0%.
Take `CS(=O)(=O)N1Cc2cc(-c3cccnc3)ccc2N(Cc2c[nH]cn2)CC1Cc1ccccc1` (stereo not given): in series [4], the Reversion stood at 10%.
In the case of `CS(=O)(=O)N1Cc2cc(-c3ccccc3)ccc2N(Cc2c[nH]cn2)C[C@H]1Cc1cccnc1`, the IC50 in series [1] came to 5.95 nM. In the series on NIH3T3, this compound returned an EC50 of 15 nM. The LCK with Mus musculus [7] is on record as 0.1.
Take `CC1CN(Cc2c[nH]cn2)c2ccccc2CN1C(=O)c1cccc2ccccc12` (stereo not given): in series [1], the IC50 is 1100 nM. The compound further came in with a Reversion in series [2] of 0%.
With `CC(=O)N1Cc2cc(C#N)ccc2N(Cc2c[nH]cn2)C[C@H]1Cc1ccccc1`, in series [1], the IC50 was determined as 8.75 nM. This compound also displayed an EC50 in the series with NIH3T3 of 100 nM.
`CS(=O)(=O)N1Cc2cc(Br)ccc2N(Cc2cnc[nH]2)CC1CNC(=O)c1ccccc1` (stereo not given): the IC50 in series [1] was 86 nM.
For `CS(=O)(=O)N1Cc2cc(-c3ccncc3)ccc2N(Cc2c[nH]cn2)C[C@H]1Cc1ccccc1`, the IC50 in [1] worked out at 16 nM. The EC50 in the series with NIH3T3 amounted to 40 nM. This compound displayed an LCK in the series on Mus musculus [8] of 0.2.
Consider `O=C(c1cccc2ccccc12)N1CCN(Cc2cnc[nH]2)c2ccc(Br)cc2C1`, for which, in series [1], the IC50 turned out to be 228 nM.
On to `CS(=O)(=O)N1Cc2cc(Br)ccc2N(Cc2cnc[nH]2)C[C@H]1CC1CCCCC1`, for which the IC50 in series [1] was determined as 23.5 nM.
Usually half-life stands for the time in which the quantity being followed falls by half. Lower therefore signals rapid decline. Usually bioavailability stands for the share of a dose that reaches the circulation, judged against a reference dose that is usually intravenous. Read a high bioavailability as good availability. As for `CS(=O)(=O)N1Cc2cc(Br)ccc2N(Cc2cnc[nH]2)C[C@H]1Cc1ccccc1`, the IC50 in [1] came out at 10.7 nM. Besides, in [9], the half-life was 1.2 h. The compound further came in with a bioavailability in series [10] of 40%.
By T/C is commonly meant the ratio of treated to control. `CS(=O)(=O)N1Cc2cc(Br)ccc2N(Cc2c[nH]cn2)CC1Cc1ccccc1` (stereo not given) yielded a T/C in the series listed under Mus musculus [11] of 138%. In the series with NIH3T3, it took 270 nM to reach a half-maximal effect (EC50). Also, the Reversion in series [4] was determined as 80%.
As for `CS(=O)(=O)N1Cc2cc(Br)ccc2N(Cc2cnc[nH]2)C[C@@H]1Cc1ccccc1`, in series [1], the IC50 is 437 nM.
Take `CCOC(=O)N1Cc2cc(C#N)ccc2N(Cc2c[nH]cn2)C[C@H]1Cc1ccccc1`: in series [1], the IC50 is 22 nM. Further, the EC50 with NIH3T3 came out at 300 nM. Further, the Reversion in [4] was 50%.
In the case of `CCCS(=O)(=O)N1Cc2cc(C#N)ccc2N(Cc2cnc[nH]2)C[C@H]1Cc1ccccc1`, the IC50 in series [1] turned out to be 1.77 nM. The compound further had an EC50 in the series with NIH3T3 of 10 nM.
In series [4], `CC(=O)N1Cc2cc(Br)ccc2N(Cc2c[nH]cn2)CC1Cc1cccc2ccccc12` (stereo not given) gave a Reversion of 5%.
Regarding `CS(=O)(=O)N1Cc2cc(-c3ccccc3)ccc2N(Cc2c[nH]cn2)CC1Cc1ccccc1` (stereo not given), the EC50 with NIH3T3 was 530 nM. The Reversion in [4] amounted to 70%.
With `CN(C)CCS(=O)(=O)N1Cc2cc(C#N)ccc2N(Cc2c[nH]cn2)C[C@H]1Cc1ccccc1`, the IC50 in series [1] came out at 1.53 nM. Besides, in the series on Mus musculus [12], the LCK came out at 1. This compound also yielded an EC50 in the series with NIH3T3 of 30 nM.
In [2], `O=C(c1cccc2ccccc12)N1CCN(Cc2c[nH]cn2)c2ccccc2C1` yielded a Reversion of 0%.
The term clearance denotes the volume of plasma or blood freed of the substance per unit of time. As usually defined, the Vd is the apparent volume that relates the amount in the body to the concentration in plasma or blood. High values mean extensive tissue distribution, low ones confinement near the circulation. Usually Cmax stands for the maximum level reached in the sampled fluid or tissue. On to `N#Cc1ccc2c(c1)CN(S(=O)(=O)c1cccs1)[C@H](Cc1ccccc1)CN2Cc1cnc[nH]1` [BMS-214662], for which the clearance in [13] is 5.7 mL/min/kg. Besides, the bioavailability in the series “in vivo [14]” came to 56%. The same compound gave a Vd in the series “in vivo [15]” of 1.4 L/kg. For the same compound, the highest level in series [16] (Cmax) was 20 µM. The same compound had a half-life in series [17] of 2.4 h.
Take `CS(=O)(=O)N1Cc2cc(Br)ccc2N(Cc2c[nH]cn2)CC1Cc1ccccc1Cl` (stereo not given): the IC50 in series [1] was found to be 18 nM. Moreover, the EC50 in the series on NIH3T3 turned out to be 460 nM. In series [4], this compound had a Reversion of 70%.
As for `CS(=O)(=O)N1Cc2cc(Br)ccc2N(Cc2cnc[nH]2)CC1CCc1ccccc1` (stereo not given), the half-maximal inhibitory concentration (IC50) in series [1] turned out to be 45 nM.
As for `CS(=O)(=O)N1Cc2cc(Br)ccc2N(Cc2cnc[nH]2)CC1Cc1ccccc1` (stereo not given), in series [1], the IC50 was 30 nM.
The same measure, in the same setting: the value for `CC(=O)N1Cc2cc(Br)ccc2N(Cc2cnc[nH]2)CC1Cc1cccc2ccccc12` (stereo not given) was 54.5 nM; that for `CS(=O)(=O)N1Cc2cc(-c3ccccc3)ccc2N(Cc2cnc[nH]2)C[C@H]1Cc1ccncc1` was 383 nM.
On to `CS(=O)(=O)N1Cc2cc(-c3ccccc3)ccc2N(Cc2cnc[nH]2)CC1Cc1ccccc1` (stereo not given), for which the IC50 in [1] was determined as 54.5 nM.
Consider `CN(C)S(=O)(=O)N1Cc2cc(C#N)ccc2N(Cc2c[nH]cn2)C[C@H]1Cc1ccccc1`, for which the IC50 in [1] amounted to 2.85 nM. In the series with NIH3T3, this compound showed an EC50 of 50 nM. In the series on Mus musculus [18], the LCK was 0.2.
With `N#Cc1ccc2c(c1)CN(S(=O)(=O)c1ccccc1)[C@H](Cc1ccccc1)CN2Cc1cnc[nH]1`, the IC50 in series [1] stood at 1.77 nM. In the series with NIH3T3, the EC50 turned out to be 10 nM.
As for `CS(=O)(=O)N1Cc2cc(-c3cccnc3)ccc2N(Cc2cnc[nH]2)CC1Cc1ccccc1` (stereo not given), the IC50 in series [1] amounted to 7.9 nM.
The same measure, in the same setting: to `CC(=O)N1Cc2ccccc2N(Cc2c[nH]cn2)CC1Cc1ccccc1` (stereo not given) belongs 1300 nM.

(Values after ChEMBL document CHEMBL1133670 (J Med Chem, 2000).)
